Results on one molecule are retold here after patent US20090068098A1, “ANTIBODIES AND RELATED MOLECULES THAT BIND TO 58P1D12 PROTEINS” (priority 2007, published 2009).

Structures are written as SMILES.

This assay deals with LAPC9-AI androgen-independent prostate tumor xenografts. The assay is described as follows: Established LAPC9-AI prostate tumor xenografts in tibiae, monotherapy and combination with Carboplatin. The assay is classed as in vivo, mouse. To be noted: day 33, vs control antibody; MAb 2 mg loading then 1.0 mg i.p. twice weekly, 7 doses; Carboplatin 40 mg/kg i.v. days 7, 11, 15, 19, 22, 26. As for the experimental part:
FIG. 16. […] The tumors were allowed to establish for 7 days, at which time the animals were randomized and assigned to four different groups (n=10 in each group) as indicated in the graph. […] Carboplatin (40 mg/kg) was administered to the mice intravenously (i.v.) on days 7, 11, 15, 19, 22 and 26. On day 33 all mice were sacrificed and the tumors were excised and weighed on an electronic balance.
The tumors were allowed to establish for 7 days, at which time the animals were randomized and assigned to four different groups (n=10 in each group). […] Carboplatin (40 mg/kg) was administered to the mice intravenously (i.v.) on days 7, 11, 15, 19, 22 and 26. On day 33 all mice were sacrificed and the tumors were excised and weighed on an electronic balance.

In the case of `N.N.O=C([O-])C1(C(=O)[O-])CCC1.[Pt+2]` [Carboplatin], the “inhibition of tumor growth (tumor weight)” value is reported as 87%.
